Laboratory results as given in ChEMBL document CHEMBL1130672, “Evaluation of a structure-based statine cyclic diamino amide encoded combinatorial library against plasmepsin II and cathepsin D” (Bioorg Med Chem Lett, 1998).

Columns and labels:
Plasmepsin II = Plasmepsin II (Plasmodium falciparum, UniProt P46925); experiment: Inhibitory activity against plasmepsin-2
Cathepsin D = Cathepsin D (Homo sapiens, UniProt P07339); experiment: Compound was tested for inhibitory activity against cathepsin D
Plasmodium falciparum = experiment: Inhibitory concentration for Plasmodium falciparum culture; assay type: functional, organism-based

Chain of Plasmepsin II (P46925 whole entry): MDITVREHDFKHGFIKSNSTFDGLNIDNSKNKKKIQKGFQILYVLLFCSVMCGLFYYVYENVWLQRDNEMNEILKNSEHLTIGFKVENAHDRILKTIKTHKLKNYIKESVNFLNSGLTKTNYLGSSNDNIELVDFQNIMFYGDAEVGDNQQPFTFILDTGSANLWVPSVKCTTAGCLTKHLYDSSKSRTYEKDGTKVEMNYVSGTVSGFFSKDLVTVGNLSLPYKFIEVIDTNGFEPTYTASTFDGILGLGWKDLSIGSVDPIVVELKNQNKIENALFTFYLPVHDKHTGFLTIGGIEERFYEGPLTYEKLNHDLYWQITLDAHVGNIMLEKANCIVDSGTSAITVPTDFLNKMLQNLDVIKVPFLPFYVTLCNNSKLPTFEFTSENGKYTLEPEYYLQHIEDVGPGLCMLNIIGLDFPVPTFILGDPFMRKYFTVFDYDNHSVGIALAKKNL
Chain of Cathepsin D (P07339 65-162 limits assumed): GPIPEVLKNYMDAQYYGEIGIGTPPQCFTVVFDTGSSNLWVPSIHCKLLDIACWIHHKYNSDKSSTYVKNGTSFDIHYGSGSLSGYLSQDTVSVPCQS
Chain of Cathepsin D (P07339 169-412 limits assumed): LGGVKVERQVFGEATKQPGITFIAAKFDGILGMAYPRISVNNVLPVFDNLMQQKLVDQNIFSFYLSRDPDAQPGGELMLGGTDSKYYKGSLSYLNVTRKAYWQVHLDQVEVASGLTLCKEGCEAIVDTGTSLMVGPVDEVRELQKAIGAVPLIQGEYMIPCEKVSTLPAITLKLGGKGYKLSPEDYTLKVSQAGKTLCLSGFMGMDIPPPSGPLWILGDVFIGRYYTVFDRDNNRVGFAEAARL

IC50 (Plasmepsin II) [µM] | Ki (Cathepsin D) [µM] | IC50 (Plasmodium falciparum) [µM] | Ki (Plasmepsin II) [µM] | IC50 (Cathepsin D) [µM] | Compound
~65 | 1.8 |  |  |  | CCCCNC(=O)C[C@H](O)[C@H](Cc1ccccc1)NC(=O)C1CN(CCOCCc2ccccc2)CCN1C(=O)CCc1cc(OC)c(OC)c(OC)c1 (some centres undefined)
~100 | 1.1 |  |  |  | CCCCNC(=O)C[C@H](O)[C@H](Cc1ccccc1)NC(=O)C1CN(C(=O)CCCCC(=O)OCC)CCN1C(=O)CCc1cc(OC)c(OC)c(OC)c1 (some centres undefined)
 |  | 3 | 0.49 | ~45 | CCCCNC(=O)C[C@H](O)[C@H](Cc1ccccc1)NC(=O)CC1CN(Cc2ccc(-c3ccccc3)cc2)CCN1C(=O)CC(CN)c1ccc(Cl)cc1 (some centres undefined)
~40 | 5.3 |  |  |  | CCCCNC(=O)C[C@H](O)[C@H](Cc1ccccc1)NC(=O)CC1CN(Cc2cc(OC)c(OC)c(OC)c2)CCN1C(=O)c1ccc(OC(C)C)cc1 (some centres undefined)
